# The source made the active and inactive calls. The rule behind the calls is not given here.
# Tests used:
# Type in all cases: functional
# [1] = species: Mus musculus; assay: Sedative activity in mouse
# [2] = species: Mus musculus; assay: Muscle relaxant activity in mouse
# [3] = species: Mus musculus; assay: Taming activity in mouse assessed as suppression of electrical current-induced aggressive behavior by foot-shock test
# [4] = species: Mus musculus; assay: Anticonvulsion activity in mouse assessed as protection against pentylenetetrazole-induced convulsion
# [5] = species: Felis catus; assay: Muscle relaxant activity in cat suspended by scruff of neck assessed as relaxation of body and hind legs
Compound,log(1/ED50) [1],log(1/ED50) [2],log(1/MED) [3],log(1/ED50) [4],log(1/MED) [5],Activity [1],Activity [2],Activity [3],ED50 ([4]; Mus musculus) [mg/kg],Activity [4]
O=C1CN=C(c2ccccc2C(F)(F)F)c2cc(C(F)(F)F)ccc2N1,1.0934,1.0934,1.2695,1.9685,2.8716,–,–,–,–,–
Cc1cc2c(cc1C)C(c1ccccc1)=NCC(=O)N2,–,–,–,0.2978,–,inactive,inactive,inactive,–,–
CN1C(=O)CN=C(c2ccccc2)c2cc(C#N)ccc21,1.1382,1.1382,1.7404,2.4393,2.7404,–,–,–,–,–
Cc1ccc2c(c1)C(c1ccccc1)=NCC(=O)N2,–,–,–,0.1549,–,inactive,inactive,inactive,–,–
CN1C(=O)CN=C(c2ccccc2F)c2cc(F)ccc21,0.1457,0.1457,–,0.3325,1.7574,–,–,inactive,–,–
O=C1CN=C(c2ccccc2)c2cc(C(F)(F)F)ccc2N1 [RO-052904],1.4829,1.4829,1.4829,2.4829,3.4829,–,–,–,–,–
O=C1CN=C(c2ccccc2[N+](=O)[O-])c2cc([N+](=O)[O-])ccc2N1,–,–,0.9112,2.9691,–,inactive,inactive,–,–,–
O=C1CN=C(c2ccccc2)c2cc([N+](=O)[O-])ccc2N1 [NITRAZEPAM],1.2726,1.2726,1.7497,2.7497,3.4487,–,–,–,–,–
O=C1CN=C(c2cccc([N+](=O)[O-])c2)c2cc([N+](=O)[O-])ccc2N1,-0.0888,-0.0888,–,0.8142,–,–,–,inactive,–,–
COc1cccc(C2=NCC(=O)Nc3ccc(Cl)cc32)c1,–,–,–,2.2225,–,inactive,inactive,inactive,–,–
COc1ccccc1C1=NCC(=O)Nc2ccc(Cl)cc21,0.0007,0.0007,0.4778,1.6027,2.4778,–,–,–,–,–
O=C1CN=C(c2ccccc2F)c2cc(Br)ccc2N1,1.5223,1.5223,2.1244,2.8233,3.8233,–,–,–,–,–
CN(C)c1ccc2c(c1)C(c1ccccc1)=NCC(=O)N2C,0.2908,0.2908,0.8648,1.6887,2.4669,–,–,–,–,–
CCSc1ccc2c(c1)C(c1ccccc1)=NCC(=O)N2,–,–,–,0.2702,–,–,–,inactive,–,–
C[S+]([O-])c1ccc2c(c1)C(c1ccccc1)=NCC(=O)N2 (configuration not stated),0.2313,0.2313,–,1.0764,1.8722,–,–,inactive,–,–
COc1cc2c(cc1Br)C(c1ccccc1)=NCC(=O)N2,0.3616,0.3616,0.6346,1.6626,–,–,–,–,–,–
CN1C(=O)CN=C(c2ccccc2F)c2cc(Cl)ccc21 [FLUDIAZEPAM],1.4807,1.4807,1.7817,2.8766,3.7817,–,–,–,–,–
N#Cc1ccc2c(c1)C(c1ccccc1F)=NCC(=O)N2,0.5705,0.5705,1.7466,2.6327,3.7466,–,–,–,–,–
Cc1cccc(C2=NCC(=O)Nc3ccc(Cl)cc32)c1,–,–,–,0.8519,–,inactive,inactive,inactive,–,–

Compound,log(1/ED50) [1],log(1/ED50) [2],log(1/MED) [3],log(1/ED50) [4],log(1/MED) [5],Activity [1],Activity [2],Activity [3],ED50 ([4]; Mus musculus) [mg/kg],Activity [4]
O=C1CN=C(c2cccc(F)c2)c2cc(Cl)ccc2N1,0.159,0.159,0.858,1.8368,2.159,–,–,–,–,–
Cc1ccccc1C1=NCC(=O)Nc2ccc(Cl)cc21,0.2779,0.2779,0.454,1.5675,2.755,–,–,–,–,–
O=C1CN=C(c2ccccc2F)c2cc([N+](=O)[O-])ccc2N1,1.8736,1.8736,2.1746,2.4934,3.7767,–,–,–,0.3,–
CSc1ccc2c(c1)C(c1ccccc1)=NCC(=O)N2C,0.7724,0.7724,0.8693,0.5963,2.4714,–,–,–,–,–
CN1C(=O)CN=C(c2ccccc2F)c2cc([N+](=O)[O-])ccc21 [FLUNITRAZEPAM],2.4955,2.4955,2.5925,2.4164,4.1945,–,–,–,–,–
CN1C(=O)CN=C(c2ccccc2Cl)c2cc([N+](=O)[O-])ccc21 [RO-054082],1.0407,1.0407,2.1198,3.4386,3.8188,–,–,–,–,–
CN1C(=O)CN=C(c2ccc(Cl)cc2)c2cc(Cl)ccc21 [RO-54864],0.5037,0.5037,–,–,–,–,–,inactive,–,inactive
O=C1CN=C(c2ccccc2)c2cccc([N+](=O)[O-])c2N1,-0.2503,-0.2503,–,–,–,–,–,inactive,–,inactive
O=C1CN=C(c2ccccc2)c2c(Cl)cccc2N1,–,–,–,0.1311,–,inactive,inactive,inactive,–,–
CSc1ccc2c(c1)C(c1ccccc1)=NCC(=O)N2,0.2073,0.2073,1.1493,1.1493,2.1493,–,–,–,–,–
CN1C(=O)CN=C(c2ccccc2)c2cc([N+](=O)[O-])ccc21 [NIMETAZEPAM],1.4698,1.4698,2.0719,2.6917,3.4698,–,–,–,–,–
COc1ccc(C2=NCC(=O)Nc3ccc(Cl)cc32)cc1,–,–,–,-0.4253,–,inactive,inactive,inactive,–,–
O=C1CN=C(c2ccccc2F)c2cc(Cl)ccc2N1 [N-DESALKYL-2-OXOQUAZEPAM],0.858,0.858,1.7611,3.4601,3.7611,–,–,–,–,–
O=C1CN=C(c2ccccc2)c2cc(F)ccc2N1 [RO-053061],0.2287,0.2287,0.4048,–,1.8028,–,–,–,–,inactive
CS(=O)(=O)c1ccc2c(c1)C(c1ccccc1)=NCC(=O)N2,–,–,–,0.2811,–,inactive,inactive,inactive,–,–
O=C1CN=C(c2ccccc2)c2ccc(Cl)cc2N1,–,–,–,-0.0917,–,inactive,inactive,inactive,–,–
O=C1CN=C(c2ccccc2)c2ccc(C(F)(F)F)cc2N1,-0.1703,-0.1703,–,–,–,–,–,inactive,–,–
Cc1cc(C)c2c(c1)C(c1ccccc1)=NCC(=O)N2,-0.2316,-0.2316,0.4216,–,–,–,–,–,–,inactive

# Reference: ChEMBL document CHEMBL3272278, “Electronic factors in the structure-activity relationship of some 1,4-benzodiazepin-2-ones” (1977)
